According to US6509153B1, “Genetic markers of toxicity preparation and uses” (Exonhit Therapeutics SA, priority 1999, dated 2003):
Where a name gives a salt, the structure may show the parent alone.

Key:
[1] = cell viability test (MTT) used to calculate the IC80 concentration; format: cell-based; details: human, HepG2 cells, read-out: Concentration (corresponds to an IC80, MTT); for IC80 at 4 h: exposure time 4 h
From the text: (§1) HepG2 cells are then individually treated with different compounds with different levels of toxicity.

HepG2 cells = experiment: hybridization of probes from treated HepG2 cells on p53 apoptosis filter (toxicity index); format: cell-based; details: HepG2 cells treated at IC80 concentration, compared with aspirin
From the text: as §1

Row | SMILES | IC80 at 18 h ([1]; exposure time 18 h) | further results
1 | CC(=O)Oc1ccccc1C(=O)O [Aspirin] | 2000 µM | –
2 | CC[C@@]1(O)C(=O)OCc2c1cc1n(c2=O)Cc2cc3ccccc3nc2-1 [Camptothecin] | – | IC80 at 4 h [1]: 1 µg/mL
3 | Clc1cccc(Cl)c1N=C1NCCN1 [Clonidine] | 150 µM | –
4 | C[C@@H]1C[C@@H]([C@H](O)CC2CC(=O)NC(=O)C2)C(=O)[C@@H](C)C1 [Cycloheximide] | 5 µg/mL | –
5 | O=C(O)Cc1ccccc1Nc1c(Cl)cccc1Cl [Diclofenac] | 50 µg/mL | splicing events identical to those induced by p53-related toxicity (toxicity index ranking) (HepG2 cells): generates more splicing events identical to those induced by p53 -related toxicity than aspirin
6 | CNC[C@H](O)c1ccc(O)c(O)c1 [Epinephrine Hydrate] | 50 µg/mL | –
7 | CC[C@H]1OC(=O)[C@H](C)[C@@H](O[C@H]2C[C@@](C)(OC)[C@@H](O)[C@H](C)O2)[C@H](C)[C@@H](O[C@@H]2O[C@H](C)C[C@H](N(C)C)[C@H]2O)[C@](C)(O)C[C@@H](C)C(=O)[C@H](C)[C@@H](O)[C@]1(C)O [Erythromycin] | 2.5 µg/mL | –
8 | CCO [Ethanol] | – | IC80 at 4 h [1]: 100000 µM
9 | COc1cc([C@@H]2c3cc4c(cc3[C@@H](O[C@@H]3O[C@@H]5CO[C@@H](C)O[C@H]5[C@H](O)[C@H]3O)[C@H]3COC(=O)[C@H]23)OCO4)cc(OC)c1O [Etoposide] | 50 µg/mL | –
10 | CN(Cc1cnc2nc(N)nc(N)c2n1)c1ccc(C(=O)N[C@@H](CCC(=O)O)C(=O)O)cc1 [Methotrexate] | 0.5 µM | –
11 | CC(=O)Nc1ccc(O)cc1 [Paracetamol] | 1000 µM | –
12 | CN[C@@H]1C[C@H]2O[C@@](C)([C@@H]1OC)n1c3ccccc3c3c4c(c5c6ccccc6n2c5c31)C(=O)NC4 [Staurosporine] | – | IC80 ([1]; exposure time 18 h): 0.05 µM
13 | CC(C)(C)NCC(O)c1cc(O)cc(O)c1 (stereo not shown) [Terbutaline Sulfate] | 0.2 µg/mL | –
14 | CC(C)[C@@H]1NC(=O)[C@H](C)OC(=O)[C@@H](C(C)C)NC(=O)[C@@H](C(C)C)OC(=O)[C@H](C(C)C)NC(=O)[C@H](C)OC(=O)[C@@H](C(C)C)NC(=O)[C@@H](C(C)C)OC(=O)[C@H](C(C)C)NC(=O)[C@H](C)OC(=O)[C@@H](C(C)C)NC(=O)[C@@H](C(C)C)OC1=O [Valinomycin] | 0.015 µM | –
15 | CC[C@]1(O)C[C@@H]2CN(CCc3c([nH]c4ccccc34)[C@@](C(=O)OC)(c3cc4c(cc3OC)N(C)[C@H]3[C@@](O)(C(=O)OC)[C@H](OC(C)=O)[C@]5(CC)C=CCN6CC[C@]43[C@@H]65)C2)C1 [Vinblastine Sulfate] | 30 µM | –
